Test results reported in PMC6268492, “Synthesis and Antiangiogenic Activity of Novel Gambogic Acid Derivatives” (Molecules, 2012).

Test system: HUVECs
Test: Wound-healing migration assay
Format: cell-based, Human
Settings: 1 μM, 24 h, control = 100%
Description: The migration of ECs is an important step of angiogenesis. The continuity of vascular ECs is the most important factor in preserving vessel wall function. Migration of ECs is essential to the recovery of this continuity after vascular ECs injury. […] As illustrated in Figure 3(I), the HUVECs migrated into the wound area actively (between the two white dash lines) under the compound-free condition (control).
Figure 3 Effects on the HUVECs migration. (I) HUVECs suspended in serum-free Dulbecco’s Modified Eagle Medium (DMEM) containing compounds (0.25 or 0.5 or 1 μM) for 24 h were photographed under a phase contrast microscopy (Olympus CKX41, magnification: 50×). Control was treated with serum-free DMEM which was consided as resulting in 100%; (II) Migration rates of compounds on the HUVECs. Data represented the mean standard deviation (SD) from three independent experiments. *** p < 0.005compared with control.
HUVECs were seeded in 6-well plates precoated with 0.1% gelatin, and grown overnight to confluence. The monolayer cells were wounded by scratching with 10 μL pipet tips and washed twice with serum-free DMEM (Dulbecco’s modified eagle medium) to remove the nonadherent cells and then replaced by serum-free DMEM with the indicated concentrations of compounds for 24 h. Images were taken at 0 h and 24 h independently after incubation at 37 °C, 5% CO2 environment. The migrated HUVECs were manually counted. The values were observed from four randomly selected fields.

CC(=O)Nc1ccc(NC(=O)/C(C)=C\CC23OC(C)(C)C4CC(C=C5C(=O)c6c(O)c7c(c(CC8OC8(C)C)c6OC542)OC(C)(CCC2OC2(C)C)C=C7)C3=O)cc1 (stereo not shown) [Compound 36, (32,33),(37,38)-Diepoxy-N-(4-acetamidophenyl) gambogamide]
migratory rates: 1.7%
